Broadly, the IC50 is the midpoint of a concentration-inhibition curve.

For experiment [1], the target named is T1, KDM3B (JMJD1B) (Homo sapiens, UniProt Q7LBC6).
T1 construct: 842-1761; host or cells: Bac (baculovirus system)
T1 sequence (Q7LBC6 842-1761): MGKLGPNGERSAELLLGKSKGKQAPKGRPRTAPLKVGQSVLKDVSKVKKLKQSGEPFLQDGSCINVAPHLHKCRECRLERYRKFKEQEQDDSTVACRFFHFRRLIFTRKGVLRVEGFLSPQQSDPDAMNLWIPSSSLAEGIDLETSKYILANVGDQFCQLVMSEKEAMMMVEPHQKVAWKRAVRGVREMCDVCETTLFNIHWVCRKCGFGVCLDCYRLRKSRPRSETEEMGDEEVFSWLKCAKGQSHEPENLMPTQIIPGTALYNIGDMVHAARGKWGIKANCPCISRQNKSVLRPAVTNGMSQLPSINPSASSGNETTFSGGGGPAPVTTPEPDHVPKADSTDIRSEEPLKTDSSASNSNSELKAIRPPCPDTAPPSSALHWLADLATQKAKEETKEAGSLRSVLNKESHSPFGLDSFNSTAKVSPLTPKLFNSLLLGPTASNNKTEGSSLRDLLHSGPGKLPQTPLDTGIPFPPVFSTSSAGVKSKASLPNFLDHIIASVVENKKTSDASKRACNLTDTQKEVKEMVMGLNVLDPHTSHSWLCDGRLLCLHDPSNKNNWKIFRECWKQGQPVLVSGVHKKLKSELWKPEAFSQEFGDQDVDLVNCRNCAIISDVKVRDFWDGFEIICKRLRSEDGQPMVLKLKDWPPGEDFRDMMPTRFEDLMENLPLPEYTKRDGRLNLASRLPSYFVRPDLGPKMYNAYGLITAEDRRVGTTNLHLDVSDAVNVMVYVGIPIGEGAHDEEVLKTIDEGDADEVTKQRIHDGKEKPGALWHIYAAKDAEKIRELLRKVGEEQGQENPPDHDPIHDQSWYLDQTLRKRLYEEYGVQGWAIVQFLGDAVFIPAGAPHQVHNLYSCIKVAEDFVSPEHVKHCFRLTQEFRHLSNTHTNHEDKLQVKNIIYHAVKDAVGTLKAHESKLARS
Put plainly: Histone lysine demethylase AlphaLISA assay, KDM3B. It is filed as biochemical. Conditions: read-out: KDM3B HDME Inhibition IC50. How it is done: Assays are performed analogously to the protocol described by PerkinElmer (Roy et al. PerkinElmer Technical Note: AlphaLISA #12, April 2011)
Enzymes are dissolved in enzyme buffer and incubated for 10 min before being added to 3% DMSO solutions of compounds in enzyme buffer. Incubated for another 10 minutes, before substrate solution is added and the reaction mixture is incubated at room temperature. 10 μL acceptor beads, suspended in Epigenetic Buffer (Perkin Elmer AL008) from stock, are added and the suspension is incubated in the dark at room temperature, before a suspension of streptavidin donor beads (Perkin Elmer 6760002) in Epigenetic Buffer is added. After incubation at room temperature in the dark the plates are read. […]
BK9M2: Biotin-ARTKQTAR(KMe2)STGGKAPRKQ-NH2 (AnaSpec 64359) […]
Substrate Solution: Substrate, 25 μM L-Asc, and 10 μM α-KG in Buffer A.
(In Alpha technology, singlet oxygen from a donor bead excites a nearby acceptor bead.)

Experiment [2] concerns the target T2, KDM2B (FBXL10) (Homo sapiens, UniProt Q8NHM5).
T2 sequence (Q8NHM5 1-650): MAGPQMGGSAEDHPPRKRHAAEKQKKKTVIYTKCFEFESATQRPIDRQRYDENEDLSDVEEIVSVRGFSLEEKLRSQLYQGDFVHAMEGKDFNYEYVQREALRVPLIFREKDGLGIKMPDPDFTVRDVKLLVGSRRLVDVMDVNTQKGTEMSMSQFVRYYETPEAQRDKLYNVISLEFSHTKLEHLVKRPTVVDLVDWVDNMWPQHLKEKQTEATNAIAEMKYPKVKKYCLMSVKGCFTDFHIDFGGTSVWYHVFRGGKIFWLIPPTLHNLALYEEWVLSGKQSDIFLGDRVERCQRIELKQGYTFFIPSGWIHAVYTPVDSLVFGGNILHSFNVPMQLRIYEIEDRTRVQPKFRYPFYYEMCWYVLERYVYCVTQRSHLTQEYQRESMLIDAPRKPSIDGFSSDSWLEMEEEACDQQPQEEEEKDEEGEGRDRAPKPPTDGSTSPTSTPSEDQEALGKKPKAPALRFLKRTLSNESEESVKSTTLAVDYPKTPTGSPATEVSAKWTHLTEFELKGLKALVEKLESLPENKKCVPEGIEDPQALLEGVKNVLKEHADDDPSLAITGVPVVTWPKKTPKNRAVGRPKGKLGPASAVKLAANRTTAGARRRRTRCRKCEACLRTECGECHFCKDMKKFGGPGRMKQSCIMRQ
Put plainly: Histone lysine demethylase AlphaLISA assay, KDM2B. Type of experiment: biochemical. Conditions: read-out: KDM2B HDME Inhibition IC50. An outline of the steps:
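Biotinylated methylated H3 peptides (K9, K4, K27 or K36 marks) served as substrate, with 25 μM L-Asc and 10 μM α-KG. Enzymes were preincubated 10 min, then exposed to compounds (3% DMSO solutions) 10 min; product detected by AlphaLISA acceptor and streptavidin donor beads at room temperature in dark.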

`CN1CCCC1CCNCc1cc(/C=N/C2CC2)ccn1` (stereo not drawn) [Compound 40, N-{[2-({[2-(l-methylpyrrolidin-2-yl)ethyl]amino}methyl)-pyridin-4-yl]methylidene}-cyclopropanamine]: the IC50 in experiment [1] and in experiment [2] was greater than 2500 nM throughout.
With `CCN(CCN(C)C)C(=O)CNCc1cc(/C=N/CCO)ccn1` [Compound 66], the half-inhibitory concentration (IC50) in experiment [1] and in experiment [2] was greater than 2500 nM in each case.
As to `CN(C)CCNCc1ccnc(CNCC(=O)N(C)C)c1` [Compound 15, 2-({[4-({[2-(dimethylamino)ethyl]-amino}methyl)pyridin-2-yl]methyl}amino)-N,N-dimethylacetamide], the IC50 in experiment [1] and in experiment [2] was greater than 2500 nM throughout.
As to `CN(C)CCCCNCc1cc(C=O)ccn1` [Compound 108, 2-({[4-(dimethylamino)-butyl]amino}methyl)-pyridine-4-carbaldehyde], the concentration for half-maximal inhibition (IC50) in experiment [1] and in experiment [2] was greater than 2500 nM each time.
For the molecule `O=C(CNCc1cc(/C=N/C2CC2)ccn1)N1CCC(Cc2ccccc2)CC1` [Compound 55, 1-(4-benzylpiperidin-1-yl)-2-[({4-[N-cyclopropyl-carboximidoyl]-pyridin-2-yl}methyl)amino]-ethan-1-one], the IC50 in experiment [1] and in experiment [2] was greater than 2500 nM each time.
In the case of `CCN(CC)CCCCNCc1cc(/C=N\CCC2CCCCC2)ccn1` [Compound 67, (2-cyclohexylethyl)-({[2-({[4-(diethylamino)-butyl]amino}methyl)pyridin-4-yl]methylidene})-amine], the IC50 in experiment [1] and in experiment [2] was greater than 2500 nM throughout.
With `N#CCNCc1ccnc(CNCCCCN(Cc2ccccc2)C2CC2)c1` [Compound 23, 2-[({2-[({4-[benzyl(cyclopropyl)-amino]butyl}amino)-methyl]pyridin-4-yl}methyl)amino]-acetonitrile], the IC50 in experiment [1] and in experiment [2] was greater than 2500 nM in each case.
For the molecule `CNC(C#N)c1ccnc(CNCCCN(C)C)c1` (stereo not drawn) [Compound 24, 2-[2-({[3-(dimethylamino)propyl]-amino}methyl)pyridin-4-yl]-2-(methylamino)-acetonitrile], the IC50 in experiment [1] and in experiment [2] was greater than 2500 nM throughout.
On to `CC1CC1/N=C/c1ccnc(CNCC(=O)N(C)C)c1` (stereo not drawn) [Compound 35, N,N-dimethyl-2-[({4-[N-(2-methylcyclopropyl)-carboximidoyl]pyridin-2-yl}methyl)amino]-acetamide], for which the IC50 in experiment [1] is greater than 2500 nM; in experiment [2] it was 250 to 2500 nM.
On the same counts, the results for `CCN(CC)CCCCNCc1cc(/C=N/CCOC)ccn1` [Compound 60, [4-(diethylamino)butyl]-({4-[[(2-methoxyethyl)imino]-methyl]pyridin-2-yl}methyl)amine] are greater than 2500 nM and greater than 2500 nM.
In the same order, the values of `CCN(CC)CCCCNCc1cc(/C=N/CCO)ccn1` [Compound 61, 2-[{[2-({[4-(diethylamino)-butyl]amino}-methyl)pyridin-4-yl]methylidene}-amino]ethan-1-ol] are greater than 2500 nM and greater than 2500 nM.
On the same counts, the results for `CCN(CC)CCCCNCc1cc(C2NCCN2C)ccn1` (stereo not drawn) [Compound 65, [4-(diethylamino)-butyl]({[4-(1-methylimidazolidin-2-yl)pyridin-2-yl]methyl})amine] are greater than 2500 nM and greater than 2500 nM.
In the case of `CN(C)C(=O)CNCc1cc(/C=N/CCC2CCCCC2)ccn1` [Compound 36, 2-[({4-[[(2-cyclohexylethyl)imino]-methyl]pyridin-2-yl}methyl)amino]-N,N-dimethylacetamide], the IC50 in experiment [1] and in experiment [2] was greater than 2500 nM throughout.
With `O=C(CNCc1cc(/C=N/C2CC2)ccn1)NC1CCN(Cc2ccccc2)C1` (stereo not drawn) [Compound 53, N-(1-benzylpyrrolidin-3-yl)-2-[({4-[N-cyclopropyl-carboximidoyl]pyridin-2-yl}methyl)amino]-acetamide], the half-inhibitory concentration (IC50) is greater than 2500 nM in experiment [1] and 250 to 2500 nM in experiment [2].
In the same order, the values of `CN(C)CCCNCc1cc(CN)ccn1` [Compound 3, [2-({[3-(dimethylamino)propyl]-amino}methyl)pyridin-4-yl]methanamine] are greater than 2500 nM and greater than 2500 nM.
As for `CC1CCCCN1CCCNCc1cc(CNC2CC2)ccn1` (stereo not drawn) [Compound 11, N-{[2-({[3-(2-methylpiperidin-1-yl)propyl]amino}methyl)-pyridin-4-yl]methyl}-cyclopropanamine], the IC50 in experiment [1] and in experiment [2] was greater than 2500 nM throughout.
On to `CCN(CC)CCCCN(Cc1cc(CNC(=O)C(F)(F)F)ccn1)C(=O)C(F)(F)F` [Compound 6, N-[4-(diethylamino)butyl]-- 2,2,2-trifluoro-N-({4-[(trifluoroacetamido)-methyl]pyridin-2-yl}methyl)acetamide], for which the IC50 in experiment [1] and in experiment [2] was greater than 2500 nM throughout.
As for `CN(C)CCNCc1cc(CNC(C#N)C2CC2)ccn1` (stereo not drawn) [Compound 21, 2-cyclopropyl-2-({[2-({[2-(dimethylamino)ethyl]-amino}methyl)pyridin-4-yl]methyl}amino)-acetonitrile], the IC50 in experiment [1] and in experiment [2] was greater than 2500 nM each time.
As to `CN(C)CC1CCC(CNCc2cc(C=O)ccn2)CC1` (stereo not drawn) [Compound 97, 2-{[({4-[(dimethylamino)-methyl]cyclohexyl}-methyl)amino]-methyl}pyridine-4-carbaldehyde], the IC50 in experiment [1] and in experiment [2] was greater than 2500 nM throughout.
Take `CN(C)C(=O)CNCc1cc(CNCCF)ccn1` [Compound 14, 2-{[(4-{[(2-fluoroethyl)amino]-methyl}pyridin-2-yl)methyl]amino}-N,N-dimethylacetamide]: the IC50 in experiment [1] and in experiment [2] was greater than 2500 nM throughout.
For the molecule `CN(C)C(=O)CNCc1cc(CNCC#N)ccn1` [Compound 13, 2-{[(4-{[(cyanomethyl)amino]-methyl}pyridin-2-yl)methyl]amino}-N,N-dimethylacetamide], the IC50 in experiment [1] and in experiment [2] was greater than 2500 nM throughout.
For the molecule `CN1CCN(C(=O)CNCc2cc(/C=N/C3CC3)ccn2)CC1` [Compound 54, 2-[({4-[N-cyclopropyl-carboximidoyl]-pyridin-2-yl}methyl)amino]-1-(4-methylpiperazin-1-yl)ethan-1-one], the IC50 is 250 to 2500 nM in experiment [1] and greater than 2500 nM in experiment [2].
Turning to `CCN(CC)CCCCNCc1cc(C=O)ccn1` [Compound 107, 2-({[4-(diethylamino)-butyl]amino}-methyl)pyridine-4-carbaldehyde], the half-maximal inhibitory concentration (IC50) in experiment [1] and in experiment [2] was greater than 2500 nM throughout.
Take `CCN(CC)CCCCNCc1cc(/C=N/CC(F)(F)C(F)(F)F)ccn1` [Compound 62, {[2-({[4-(diethylamino)-butyl]amino}methyl)pyridin-4-yl]methylidene} (2,2,3,3,3-pentafluoropropyl)-amine]: the IC50 in experiment [1] and in experiment [2] was greater than 2500 nM each time.

(Values after patent US9650339B2, “Inhibitors of histone demethylases” (Gilead Sciences, Inc., priority 2013, dated 2017).)
